Assays:
[1] = Clearance in Chimpanzee at 0.5 mg/kg administered as iv infusion; assay type: ADME, organism-based, Pan troglodytes; conditions: in vivo
[2] = test system: Candida albicans; assay: Antifungal activity against Candida albicans GS; assay type: functional, organism-based
[3] = in vivo; conditions: chimpanzee, iv, 0.5 mg/kg
[4] = Clearance in Chimpanzee at 0.5 mg/kg, iv bolus injection; assay type: ADME, organism-based, Pan troglodytes; conditions: in vivo
[5] = test system: Candida albicans; assay: Fungicidal activity against Candida albicans; assay type: functional
[6] = in vivo; conditions: chimpanzee, iv, 0.5 mg/kg; remark: listed apart in the source
[7] = Terminal half-life in rhesus monkey at 40 mg/kg, po; assay type: ADME, organism-based, Macaca mulatta; conditions: in vivo, read-out: beta t1/2 (converted)
[8] = Terminal half-life in iv dosed rat; assay type: ADME, organism-based; conditions: in vivo, read-out: beta t1/2 (converted)
[9] = target: T1, Neutrophil elastase (Homo sapiens) (UniProt P08246); assay: Time-dependent inhibition of human leukocyte elastase assessed as observed binding constant
T1 sequence (whole entry): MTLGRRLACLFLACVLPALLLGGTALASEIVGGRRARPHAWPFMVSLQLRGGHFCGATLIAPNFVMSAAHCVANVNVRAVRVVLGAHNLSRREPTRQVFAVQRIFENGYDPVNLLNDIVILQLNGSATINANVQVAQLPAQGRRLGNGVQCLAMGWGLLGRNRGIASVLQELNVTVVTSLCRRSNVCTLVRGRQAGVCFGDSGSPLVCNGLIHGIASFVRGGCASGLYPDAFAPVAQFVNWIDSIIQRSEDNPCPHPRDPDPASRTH

[10] = Oral bioavailability in rat; assay type: ADME, organism-based; conditions: in vivo
[11] = Oral bioavailability in monkey; assay type: ADME, organism-based, Macaca mulatta; conditions: rhesus monkey, in vivo
[12] = Terminal half-life in iv dosed rhesus monkey; assay type: ADME, organism-based, Macaca mulatta; conditions: in vivo, read-out: beta t1/2 (converted)
[13] = Aqueous stability of the compound at pH 7 assessed as half-life; assay type: physicochemical; conditions: aqueous solution
[14] = test system: L1210; assay: Anticancer activity against mouse L1210 cells; assay type: functional, cell-based
[15] = test system: HEp-2; assay: Anticancer activity against human HEp-2 cells; assay type: functional, cell-based
[16] = test system: CCRF-CEM; assay: Anticancer activity against human CCRF-CEM cells; assay type: functional, cell-based
[17] = test system: K562; assay: Anticancer activity against human K562 cells; assay type: functional, cell-based
[18] = Half-life in human; assay type: ADME
[19] = Tmax in human; assay type: ADME
[20] = Stability of the compound assessed as compound hydrolysis by measuring relative rate constant by titrimetric method; assay type: physicochemical
[21] = Oral bioavailability in rat relative to urinary excretion; assay type: ADME, organism-based; conditions: urine
[22] = Oral bioavailability in rat relative to plasma exposure; assay type: ADME, organism-based
[23] = Tmax in rhesus monkey at 40 mg/kg, po; assay type: ADME, organism-based, Macaca mulatta; conditions: in vivo
[24] = Stability of the compound in 50% dioxane solution at 30 degreeC assessed as compound hydrolysis by measuring rate constant; assay type: physicochemical
[25] = Stability of the compound in 20% aqueous dioxane solution at 30 degreeC assessed as compound hydrolysis by measuring rate constant; assay type: physicochemical; conditions: buffer

## CC[C@H](C)C[C@H](C)CCCCCCCCC(=O)N[C@H]1C[C@@H](O)[C@@H](OCCN)NC(=O)[C@@H]2[C@@H](O)CCN2C(=O)[C@H]([C@H](O)CCN)NC(=O)[C@H]([C@H](O)[C@@H](O)c2ccc(O)cc2)NC(=O)[C@@H]2C[C@@H](O)CN2C(=O)[C@H]([C@@H](C)O)NC1=O
[1]
  clearance: 0.56 mL/min/kg
[2]
  IC50: 1 nM
[3]
  half-life: 2.6 h
[4]
  clearance: 0.58 mL/min/kg
[5]
  MFC: < 0.06 µg/mL
[6]
  half-life: 2.8 h

## CCC[C@@H](NC(=O)N1C(=O)C(CC)(CC)[C@@H]1Oc1ccc(CC(=O)O)cc1)c1ccc(C)cc1
[7]
  half-life: 6 h
[8]
  half-life: 2.3 h
[9]
  K: 6.2 10^5/M/s
[10]
  bioavailability: 100%
[11]
  bioavailability: 23%
[12]
  half-life: 5.8 h

## CC1(C)S[C@@H]2[C@H](NC(=O)[C@H](N)c3ccccc3)C(=O)N2[C@H]1C(=O)O [AMPICILLIN]
[13]
  half-life: 0.25 h

## Nc1nc(F)nc2c1ncn2[C@@H]1O[C@H](COP(=O)(O)O)[C@@H](O)[C@@H]1O [FLUDARABINE PHOSPHATE]
[14]
  IC50: 3000 nM
[15]
  IC50: 9000 nM
[16]
  IC50: 400 nM
[17]
  IC50: 150 nM

## CN1CCN(C(=O)O[C@H]2c3nccnc3C(=O)N2c2ccc(Cl)cn2)CC1 [ESZOPICLONE]
[18]
  half-life: 5 h
[19]
  Tmax: 1 h

## CC1(C)OCCO1
[20]
  K: 5.4 10^4No_unit

## Nc1ccn([C@@H]2CO[C@H](CO)O2)c(=O)n1 [TROXACITABINE]
[21]
  bioavailability: 41%
[22]
  bioavailability: 37%

## CCC[C@@H](NC(=O)N1C(=O)C(CC)(CC)[C@@H]1Oc1ccc(C(=O)N2CCN(C)CC2)cc1)c1ccc2c(c1)OCO2
[7]
  half-life: 6 h
[10]
  bioavailability: 65%
[23]
  Tmax: 8 h
[11]
  bioavailability: 39%

## COc1ccc(C2(c3ccc(OC)cc3)OCCO2)cc1
[24]
  K: 1.2 10^-1/M/s
[25]
  K: 8.5 10^-1/M/s

Source: ChEMBL document CHEMBL5244275, “Geminal Diheteroatomic Motifs: Some Applications of Acetals, Ketals, and Their Sulfur and Nitrogen Homologues in Medicinal Chemistry and Drug Design” (J Med Chem, 2021)
